Activity calls are given as the source filed them. The calls are words filed in the database; no cut-off is given here.
Assays:
[1] = molecular target: T1, Tryptophan 2,3-dioxygenase (Homo sapiens, UniProt P48775); test: Inhibition of recombinant human TDO assessed as reduction in N-formylkynurenine formation using L-tryptophan as substrate and measured after 15 mins
Target sequence in this assay (P48775 whole entry): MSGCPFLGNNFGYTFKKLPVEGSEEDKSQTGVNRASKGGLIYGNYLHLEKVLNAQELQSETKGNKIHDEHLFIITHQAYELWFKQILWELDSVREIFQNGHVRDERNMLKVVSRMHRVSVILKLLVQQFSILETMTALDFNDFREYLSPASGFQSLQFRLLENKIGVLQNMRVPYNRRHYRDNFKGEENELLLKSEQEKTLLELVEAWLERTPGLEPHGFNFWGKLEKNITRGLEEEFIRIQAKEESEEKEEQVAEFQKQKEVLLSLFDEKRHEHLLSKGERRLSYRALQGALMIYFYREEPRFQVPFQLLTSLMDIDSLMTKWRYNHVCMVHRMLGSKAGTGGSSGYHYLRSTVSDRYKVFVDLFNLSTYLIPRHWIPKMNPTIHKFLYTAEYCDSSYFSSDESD

[2] = molecular target: T2, Indoleamine 2,3-dioxygenase 1 (Homo sapiens, UniProt P14902); test: Inhibition of recombinant human IDO1 assessed as reduction in N-formylkynurenine formation using L-tryptophan as substrate and measured after 15 mins
Target sequence in this assay (P14902 whole entry): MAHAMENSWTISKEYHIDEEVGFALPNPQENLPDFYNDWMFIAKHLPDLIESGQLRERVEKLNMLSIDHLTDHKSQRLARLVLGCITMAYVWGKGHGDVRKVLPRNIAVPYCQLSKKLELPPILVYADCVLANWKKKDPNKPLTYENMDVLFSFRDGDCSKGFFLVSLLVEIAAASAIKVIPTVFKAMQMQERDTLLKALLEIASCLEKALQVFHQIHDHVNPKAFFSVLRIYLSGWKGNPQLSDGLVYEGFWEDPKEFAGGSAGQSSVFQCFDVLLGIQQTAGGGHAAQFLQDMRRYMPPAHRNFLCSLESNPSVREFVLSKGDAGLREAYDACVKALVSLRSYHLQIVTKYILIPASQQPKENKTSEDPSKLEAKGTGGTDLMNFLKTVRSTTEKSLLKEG

[3] = molecular target: T2, Indoleamine 2,3-dioxygenase 1; test: Inhibition of IDO1 in IFNgamma-stimulated human HeLa cells assessed as reduction in kynurenine formation using L-tryptophan as substrate by absorbance based analysis; assay type: cell-based
Target sequence in this assay (P14902 whole entry): as above

[4] = molecular target: T1, Tryptophan 2,3-dioxygenase; test: Inhibition of TDO in human HEK293 cells assessed as reduction in kynurenine formation using L-tryptophan as substrate by absorbance based analysis; assay type: cell-based
Target sequence in this assay (P48775 whole entry): as the sequence (P48775 whole entry) above

HeLa [5] = test: Induction of apoptosis in human HeLa cells assessed as increase in Bax expression at 1 to 10 uM measured by western blot analysis; assay type: functional, cell-based; settings: dose 1-10 µM
HeLa [6] = test: Induction of apoptosis in IFNgamma-stimulated human HeLa cells assessed apoptotic cells at 5 uM measured after 12 hrs by Annexin V-FITC/PI based flow cytometry analysis; assay type: functional
HeLa [7] = test: Induction of apoptosis in human HeLa cells assessed as decrease in Bcl-2 expression at 1 to 10 uM measured by western blot analysis; assay type: functional, cell-based; settings: dose 1-10 µM
HeLa [8] = test: Induction of apoptosis in human HeLa cells assessed apoptotic cells at 5 uM measured after 12 hrs by Annexin V-FITC/PI based flow cytometry analysis; assay type: functional
HeLa [9] = test: Induction of apoptosis in human HeLa cells assessed apoptotic cells at 10 uM measured after 24 hrs by Annexin V-FITC/PI based flow cytometry analysis; assay type: functional
[10] = Hemolytic activity in rat RBC at 500 uM incubated for 30 mins; assay type: toxicity, cell-based, Erythrocyte; settings: rat red blood cells (erythrocytes), read-out: Activity
[11] = molecular target: T2, Indoleamine 2,3-dioxygenase 1; test: Non-competitive inhibition of recombinant human IDO1 measured by surface plasmon resonance assay
Target sequence in this assay (P14902 whole entry): as the sequence (P14902 whole entry) above

[12] = Cytotoxicity against human HEK-293T cells; assay type: toxicity, cell-based
[13] = molecular target: T1, Tryptophan 2,3-dioxygenase; test: Competitive inhibition of recombinant human TDO measured by UV/visible spectrophotometric method
Target sequence in this assay (P48775 whole entry, looked up): as the sequence (P48775 whole entry) above

[14] = molecular target: T1, Tryptophan 2,3-dioxygenase; test: Competitive inhibition of recombinant human TDO measured by surface plasmon resonance assay
Target sequence in this assay (P48775 whole entry): as above

HeLa [15] = test: Induction of apoptosis in human HeLa cells assessed apoptotic cells at 5 uM measured after 6 hrs by Annexin V-FITC/PI based flow cytometry analysis; assay type: functional, cell-based
HeLa [16] = test: Induction of apoptosis in human HeLa cells assessed as increase in Bax/Bcl-2 ratio at 1 to 10 uM measured by western blot analysis; assay type: functional, cell-based; settings: dose 1-10 µM
[17] = molecular target: T2, Indoleamine 2,3-dioxygenase 1; test: Non-competitive inhibition of recombinant human IDO1 measured by UV/visible spectrophotometric method
Target sequence in this assay (P14902 whole entry, looked up): as the sequence (P14902 whole entry) above

Row | SMILES | IC50 [1] [nM] | IC50 [2] [nM] | IC50 [3] [nM] | IC50 [4] [nM] | further results
1 | C[C@@H](CO)C1=C(O)C(=O)c2c(ccc3c2CCCC3(C)C)C1=O | > 10000 | > 10000 |  |  | 
2 | CC1(C)C(=O)C=Cc2c1ccc1c2C(=O)C(=O)c2c(C=O)coc2-1 | > 10000 | > 10000 |  |  | 
3 | Cc1coc2c1C(=O)C(=O)c1c-2ccc2c1CCCC2(C)C [TANSHINONE IIA] | > 10000 | > 10000 |  |  | 
4 | Cc1c[nH]c2c1C(=O)C(=O)c1c-2ccc2c1CCCC2(C)C | > 10000 | > 10000 |  |  | 
5 | Cc1coc2c1C(=O)C(=O)c1c-2ccc2c1C(=O)C(O)CC2(C)C (configuration not stated) | 1480 | 490 | > 10000 | > 10000 | 
6 | Cc1c(Br)oc2c1C(=O)C(=O)c1c-2ccc2c1CCCC2(C)C | > 10000 | > 10000 |  |  | 
7 | CC(=O)Oc1c(OC(C)=O)c2c(C)coc2c2ccc3c(c12)CCCC3(C)C | > 10000 | > 10000 |  |  | 
8 | Cc1coc2c1c(=O)oc(=O)c1c3c(ccc12)C(C)(C)CCC3 | > 10000 | > 10000 |  |  | 
9 | CC1(C)C(=O)C=Cc2c1ccc1c2C(=O)C(=O)c2c(C(=O)O)coc2-1 | > 10000 | 4570 | 8550 | > 10000 | 
10 | Cc1coc2c1C(=O)C(=O)c1c-2ccc2c1CC[C@H](O)C2(C)C | 2700 | 5120 | > 10000 | > 10000 | 
11 | C[C@H]1COC2=C1C(=O)C(=O)c1c2ccc2c1CCCC2(C)C [CRYPTOTANSHINONE] | 9800 | 10000 |  |  | 
12 | NS(=O)(=O)NCCNc1nonc1C(=NO)Nc1ccc(F)c(Br)c1 [EPACADOSTAT] | 16100 |  |  | 10400 | 
13 | CC(=O)O[C@H]1CCc2c(ccc3c2C(=O)C(=O)c2c(CO)coc2-3)C1(C)C | 1840 | 750 | 1870 | 1910 | 
14 | CC(=O)OCc1coc2c1C(=O)C(=O)c1c-2ccc2c1CC[C@H](O)C2(C)C | 2420 | 670 | 2420 | 2060 | 
15 | COC(=O)c1coc2c1C(=O)C(=O)c1c-2ccc2c1C=CC(=O)C2(C)C | > 10000 | > 10000 |  |  | 
16 | CCN(CC)C(=O)c1coc2c1C(=O)C(=O)c1c-2ccc2c1C=CC(=O)C2(C)C | 9540 | 3270 | > 10000 | > 10000 | 
17 | Cc1coc2c1C(=O)C(=O)c1c-2ccc2c1C=CCC2(C)C | > 10000 | > 10000 |  |  | 
18 | C[C@@H](C=O)C1=C(O)C(=O)c2c(ccc3c2CCCC3(C)C)C1=O | > 10000 | > 10000 |  |  | 

Compounds with a lower IC50 [1], results first:

Row | IC50 [1] [nM] | IC50 [2] [nM] | IC50 [3] [nM] | IC50 [4] [nM] | SMILES | further results
19 | 1210 | 810 | 5100 | > 10000 | Cc1coc2c1C(=O)C(=O)c1c-2ccc2c1CC[C@H](OS(C)(=O)=O)C2(C)C | 
20 | 1010 | 2880 | > 10000 | > 10000 | Cc1coc2c1C(=O)C(=O)c1c-2ccc2c1C(=O)C(O)=CC2(C)C | 
21 | 1010 | 590 | 1670 | 950 | CC1(C)c2ccc3c(c2CC[C@@H]1O)C(=O)C(=O)c1c(CO)coc1-3 | 
22 | 960 | 980 | 9330 | > 10000 | Cc1coc2c1C(=O)C(=O)c1c-2ccc2c1C=CC(=O)C2(C)C | 
23 | 940 | 360 | > 10000 | > 10000 | Cc1coc2c1C(=O)C(=O)c1c-2ccc2c1CCC(=O)C2(C)C | 
24 | 710 | 1500 | > 10000 | 8100 | Cc1coc2c1C(=O)C(=O)c1c-2ccc2c1C(Br)CCC2(C)C (configuration not stated) | 
25 | 670 | 1730 | 810 | 860 | CC(=O)OCc1coc2c1C(=O)C(=O)c1c-2ccc2c1CCC(=O)C2(C)C | 
26 | 570 | 420 | 650 | 730 | CC1(C)C(=O)C=Cc2c1ccc1c2C(=O)C(=O)c2c(CF)coc2-1 | 
27 | 450 | 220 | 2560 | 1420 | CC1(C)C(=O)C=Cc2c1ccc1c2C(=O)C(=O)c2c(CO)coc2-1 | 
28 | 450 | 1070 | > 10000 | 7180 | CC1(C)CCCc2c1ccc1c2C(=O)C(=O)c2c(CO)coc2-1 [PRZEWAQUINONE A] | 
29 | 370 | 400 | > 10000 | 2800 | CC(=O)O[C@H]1CCc2c(ccc3c2C(=O)C(=O)c2c(C)coc2-3)C1(C)C | 
30 | 200 | 160 | 450 | 3130 | CC1(C)C(=O)CCc2c1ccc1c2C(=O)C(=O)c2c(CO)coc2-1 | 
31 | 160 | 70 | 270 | 1870 | CC(=O)OCc1coc2c1C(=O)C(=O)c1c-2ccc2c1C=CC(=O)C2(C)C | Activity (HeLa [5]): Active; Activity (HeLa [6]): 68.6%; Activity (HeLa [7]): Active; Activity (HeLa [8]): 39.9%; Activity (HeLa [9]): 92.8%; hemolysis at 0.5 h, 500 µM [10]: 10%; Ki [11]: 230 nM; IC50 [12]: > 10000 nM; inhibition [13]: Active; Ki [14]: 730 nM; Activity (HeLa [15]): Active; Activity (HeLa [16]): Active; inhibition [17]: Active
32 | 110 | 140 | 680 | 340 | CC1(C)C(=O)C=Cc2c1ccc1c2C(=O)C(=O)c2c(CCl)coc2-1 | 

— ChEMBL document CHEMBL5154829, “Discovery and biological evaluation of tanshinone derivatives as potent dual inhibitors of indoleamine 2, 3-dioxygenase 1 and tryptophan 2, 3-dioxygenase” (Eur J Med Chem, 2022)
